# ChEMBL document CHEMBL1123642, “Design and synthesis of phosphonate inhibitors of glutamine synthetase” (J Med Chem, 1987)
# Columns and labels:
# [1] = tested on: glutamine synthetase (Pisum sativum); experiment: Tested for the inhibition of Glutamine synthetase (Pea seed) activity using biosynthetic assay [[…] (pH 7), 5 mM MgCl2] at a concentration of 0 mM; settings: Lathyrus oleraceus
# [2] = tested on: glutamine synthetase (Pisum sativum); experiment: Tested for the inhibition of Glutamine synthetase (Pea seed) activity using biosynthetic assay [[…] (pH 7), 5 mM MgCl2] at a concentration of 0.1 mM; settings: Lathyrus oleraceus
# [3] = tested on: glutamine synthetase (Pisum sativum); experiment: Tested for the inhibition of Glutamine synthetase (Pea seed) activity using biosynthetic assay [[…] (pH 7), 5 mM MgCl2] at a concentration of 1.0 mM; settings: Lathyrus oleraceus
# [4] = tested on: glutamine synthetase (Pisum sativum); experiment: Tested for the inhibition of Glutamine synthetase (Pea seed) activity using biosynthetic assay [[…] (pH 7), 5 mM MgCl2] at a concentration of 10.0 mM; settings: Lathyrus oleraceus
# [5] = tested on: glutamine synthetase (Ovis aries); experiment: Tested for the inhibition of Glutamine synthetase (Ovine brain) activity using biosynthetic assay [[…] (pH 7), 5 mM MgCl2] at a concentration of 0 mM
# [6] = tested on: glutamine synthetase (Ovis aries); experiment: Tested for the inhibition of Glutamine synthetase (Ovine brain) activity using biosynthetic assay [[…] (pH 7), 5 mM MgCl2] at a concentration of 0.1 mM
# [7] = tested on: glutamine synthetase (Ovis aries); experiment: Tested for the inhibition of Glutamine synthetase (Ovine brain) activity using biosynthetic assay [[…] (pH 7), 5 mM MgCl2] at a concentration of 1.0 mM
# [8] = tested on: glutamine synthetase (Ovis aries); experiment: Tested for the inhibition of Glutamine synthetase (Ovine brain) activity using biosynthetic assay [[…] (pH 7), 5 mM MgCl2] at a concentration of 10.0 mM
# [9] = target: glutamine synthetase (Escherichia coli) (UniProt P0A9C5); experiment: Tested for the inhibition of Glutamine synthetase (Escherichia coli) activity using biosynthetic assay [[…] (pH 7), 5 mM MgCl2] at a concentration of 0 mM
# Sequence of glutamine synthetase (Escherichia coli) (P0A9C5 whole entry, looked up): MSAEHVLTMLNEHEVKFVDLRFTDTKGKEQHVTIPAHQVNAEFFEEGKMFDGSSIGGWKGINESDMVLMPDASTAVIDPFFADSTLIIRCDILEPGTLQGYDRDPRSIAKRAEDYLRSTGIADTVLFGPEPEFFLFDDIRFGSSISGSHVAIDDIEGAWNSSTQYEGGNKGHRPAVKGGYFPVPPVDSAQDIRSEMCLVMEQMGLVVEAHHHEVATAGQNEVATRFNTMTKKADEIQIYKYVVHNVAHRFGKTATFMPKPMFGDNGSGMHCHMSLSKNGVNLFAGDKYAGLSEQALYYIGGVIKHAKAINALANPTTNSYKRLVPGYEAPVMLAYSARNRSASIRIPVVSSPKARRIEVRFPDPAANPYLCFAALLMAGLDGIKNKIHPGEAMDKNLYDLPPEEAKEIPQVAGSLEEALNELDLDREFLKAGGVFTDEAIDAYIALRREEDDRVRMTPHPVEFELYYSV
# [10] = target: glutamine synthetase (Escherichia coli) (UniProt P0A9C5); experiment: Tested for the inhibition of Glutamine synthetase (Escherichia coli) activity using biosynthetic assay [[…] (pH 7), 5 mM MgCl2] at a concentration of 0.1 mM
# [11] = target: glutamine synthetase (Escherichia coli) (UniProt P0A9C5); experiment: Tested for the inhibition of Glutamine synthetase (Escherichia coli) activity using biosynthetic assay [[…] (pH 7), 5 mM MgCl2] at a concentration of 1.0 mM
# [12] = target: glutamine synthetase (Escherichia coli) (UniProt P0A9C5); experiment: Tested for the inhibition of Glutamine synthetase (Escherichia coli) activity using biosynthetic assay [[…] (pH 7), 5 mM MgCl2] at a concentration of 10.0 mM
# [13] = tested on: glutamine synthetase (Pisum sativum); experiment: Tested for the inhibition of Glutamine synthetase (Pea seed) activity using Gamma-glutamyl transferase assay [[…] (pH 7), 5 mM MgCl2] at a concentration of 0 mM; settings: Lathyrus oleraceus
# [14] = tested on: glutamine synthetase (Pisum sativum); experiment: Tested for the inhibition of Glutamine synthetase (Pea seed) activity using Gamma-glutamyl transferase assay [[…] (pH 7), 5 mM MgCl2] at a concentration of 1.0 mM; settings: Lathyrus oleraceus
# [15] = tested on: glutamine synthetase (Pisum sativum); experiment: Tested for the inhibition of Glutamine synthetase (Pea seed) activity using Gamma-glutamyl transferase assay [[…] (pH 7), 5 mM MgCl2] at a concentration of 0.1 mM; settings: Lathyrus oleraceus
# [16] = tested on: glutamine synthetase (Pisum sativum); experiment: Tested for the inhibition of Glutamine synthetase (Pea seed) activity using Gamma-glutamyl transferase assay [[…] (pH 7), 5 mM MgCl2] at a concentration of 10.0 mM; settings: Lathyrus oleraceus
# [17] = tested on: glutamine synthetase (Ovis aries); experiment: Tested for the inhibition of Glutamine synthetase (Ovine brain) activity using Gamma-glutamyl transferase assay [[…] (pH 7), 5 mM MgCl2] at a concentration of 0 mM
# [18] = tested on: glutamine synthetase (Ovis aries); experiment: Tested for the inhibition of Glutamine synthetase (Ovine brain) activity using Gamma-glutamyl transferase assay [[…] (pH 7), 5 mM MgCl2] at a concentration of 0.1 mM
# [19] = tested on: glutamine synthetase (Ovis aries); experiment: Tested for the inhibition of Glutamine synthetase (Ovine brain) activity using Gamma-glutamyl transferase assay [[…] (pH 7), 5 mM MgCl2] at a concentration of 1.0 mM
# [20] = tested on: glutamine synthetase (Ovis aries); experiment: Tested for the inhibition of Glutamine synthetase (Ovine brain) activity using Gamma-glutamyl transferase assay [[…] (pH 7), 5 mM MgCl2] at a concentration of 10.0 mM
# [21] = target: glutamine synthetase (Escherichia coli) (UniProt P0A9C5); experiment: Tested for the inhibition of Glutamine synthetase (Escherichia coli) activity using Gamma-glutamyl transferase assay [[…] (pH 7), 5 mM MgCl2] at a concentration of 0 mM
# [22] = target: glutamine synthetase (Escherichia coli) (UniProt P0A9C5); experiment: Tested for the inhibition of Glutamine synthetase (Escherichia coli) activity using Gamma-glutamyl transferase assay [[…] (pH 7), 5 mM MgCl2] at a concentration of 0.1 mM
# [23] = target: glutamine synthetase (Escherichia coli) (UniProt P0A9C5); experiment: Tested for the inhibition of Glutamine synthetase (Escherichia coli) activity using Gamma-glutamyl transferase assay [[…] (pH 7), 5 mM MgCl2] at a concentration of 1.0 mM
# [24] = target: glutamine synthetase (Escherichia coli) (UniProt P0A9C5); experiment: Tested for the inhibition of Glutamine synthetase (Escherichia coli) activity using Gamma-glutamyl transferase assay [[…] (pH 7), 5 mM MgCl2] at a concentration of 10.0 mM
# [25] = tested on: glutamine synthetase (Pisum sativum); experiment: Tested for the inhibition of Glutamine synthetase(Pea seed) activity using Gamma-glutamyl transferase assay [[…] (pH 7), 5 mM MgCl2] at a concentration of 10.0 mM; settings: Lathyrus oleraceus
smiles,measurement,setting,value
CC(N)(CCSCP(=O)(O)O)C(=O)O (stereo not given),Relative activity,[1],1
same,Relative activity,[2],1
same,Relative activity,[3],1.2
same,Relative activity,[4],0.5
same,Relative activity,[5],1
same,Relative activity,[6],1
same,Relative activity,[7],1
same,Relative activity,[8],1.2
same,Relative activity,[9],1
same,Relative activity,[10],1
same,Relative activity,[11],1.95
same,Relative activity,[12],1.25
same,Relative activity,[13],1
same,Relative activity,[14],1
same,Relative activity,[15],1
same,Relative activity,[16],1
same,Relative activity,[17],1
same,Relative activity,[18],1
same,Relative activity,[19],1
same,Relative activity,[20],1.1
same,Relative activity,[21],1
same,Relative activity,[22],1.1
same,Relative activity,[23],1.4
same,Relative activity,[24],1.5
CC(N)(CC[S+]([O-])CP(=O)(O)O)C(=O)O (stereo not given),Relative activity,[2],1.1
same,Relative activity,[3],1.1
same,Relative activity,[4],0.75
same,Relative activity,[6],1.2
same,Relative activity,[7],1.2
same,Relative activity,[8],1
same,Relative activity,[10],1.2
same,Relative activity,[11],1.2
same,Relative activity,[12],0.95
same,Relative activity,[14],0.9
same,Relative activity,[15],0.9
same,Relative activity,[16],1
same,Relative activity,[18],1
same,Relative activity,[19],1
same,Relative activity,[20],1.2
same,Relative activity,[22],1
same,Relative activity,[23],1
same,Relative activity,[24],1.5
CC(N)(CCS(=O)(=O)CP(=O)(O)O)C(=O)O (stereo not given),Relative activity,[2],1.1
same,Relative activity,[3],0.8
same,Relative activity,[4],0.85
same,Relative activity,[6],1.2
same,Relative activity,[7],1
same,Relative activity,[8],1
same,Relative activity,[10],1.1
same,Relative activity,[11],1
same,Relative activity,[12],1
same,Relative activity,[14],0.9
same,Relative activity,[15],0.8
same,Relative activity,[25],0.9
same,Relative activity,[18],0.95
same,Relative activity,[19],0.9
same,Relative activity,[20],0.8
same,Relative activity,[22],1.1
same,Relative activity,[23],1.1
same,Relative activity,[24],1
